The CATMoS acute toxicity set (Mansouri et al. 2021)
Values joined by “and” are separate entries in the source; they are usually repeats but may differ in a detail not shown here. Equal entries are not always repeated.

Assay: rat acute oral toxicity
Details: in vivo

Structure (SMILES) | LD50
CC(Cc1ccc(C(C)(C)C)cc1)CN1CC(C)OC(C)C1 (configuration not stated) | 1670 mg/kg
O=C1C2CC=CCC2C(=O)N1SC(Cl)(Cl)Cl (configuration not stated) | 9000 mg/kg
Cc1ccc(Cl)cc1 | 2100 mg/kg
CCOP(=O)(NC(C)C)Oc1ccc(SC)c(C)c1 (configuration not stated) | 2.7 mg/kg
C=CC(=O)NC(C)(C)CS(=O)(=O)O | 1830 mg/kg
CC(C)c1ccccc1 | 1400 mg/kg
CCN | 400 mg/kg
OCCOCCOCCO | 17000 mg/kg
CCCCC(CC)COC(=O)CC(C(=O)OCC(CC)CCCC)S(=O)(=O)O (configuration not stated) | 1900 mg/kg
CN(C)c1ccc(N)cc1 | 50 mg/kg
COC(=O)C(N)Cc1cnc[nH]1 (configuration not stated) | 1370 mg/kg
C=COCCCl | 210 mg/kg
CCCCNCCCC | 189 mg/kg
Cc1[nH]c(=O)n(C(C)(C)C)c(=O)c1Cl | 1700 mg/kg
CC(C)C(Nc1ccc(C(F)(F)F)cc1Cl)C(=O)OC(C#N)c1cccc(Oc2ccccc2)c1 (configuration not stated) | 261 mg/kg
CN(CCCCCC(=O)O)S(=O)(=O)c1ccccc1 (racemic) | 3040 mg/kg
CCCCC(CC)(CO)CO | 2800 mg/kg
CCC(C)C(C)C(C)CCc1ccc(O)cc1 (configuration not stated) | 2100 mg/kg
CCCSP(=S)(OCC)Oc1ccc(SC)cc1 (configuration not stated) | 65 mg/kg
CCCCCCCC/C=C\CCCCCCCCNCCCN | 500 mg/kg
CC(C)[C@H](C(=O)OC(C#N)c1cccc(Oc2ccccc2)c1)c1ccc(OC(F)F)cc1 (some centres not stated) | 67 mg/kg
CN=C=S | 55 mg/kg
Clc1ccc(Cl)cc1 | 500 mg/kg
CC1(C)CC(NCCCCCCNC2CC(C)(C)NC(C)(C)C2)CC(C)(C)N1 | 820 mg/kg
C1COCO1 | 3000 mg/kg

Structure (SMILES) | LD50
CCCCCO | 2200 mg/kg
CC(C)CC=O | 5600 mg/kg
CCCCCCCCCc1ccc(OP(Oc2ccc(CCCCCCCCC)cc2)Oc2ccc(CCCCCCCCC)cc2)cc1 | 10000 mg/kg
O=C(O)c1ccccc1C(=O)Nc1cccc2ccccc12 | 1770 mg/kg
COP(=O)(OC)C(O)C(Cl)(Cl)Cl (configuration not stated) | 154 mg/kg
CC(C)(C)CC(C)(C)N | 218 mg/kg
CC(O)CC(C)(C)O (configuration not stated) | 3700 mg/kg
NC1CCCCC1N (configuration not stated) | 1170 mg/kg
O=C=NC1CCCCC1 | 335 mg/kg
COc1ccccc1[N+](=O)[O-] | 740 mg/kg
CCC(=O)O[C@](Cc1ccccc1)(c1ccccc1)[C@H](C)CN(C)C | 135 mg/kg
Nc1ccc([N+](=O)[O-])cc1 | 750 mg/kg
COCCOCCOCCOC | 5390 mg/kg
Cc1ccccc1NC(=N)Nc1ccccc1C | 70.7 mg/kg
CC(=O)CC(C)=O | 570 mg/kg
COC(=O)N(C(=O)N1CO[C@@]2(C(=O)OC)Cc3cc(Cl)ccc3C2=N1)c1ccc(OC(F)(F)F)cc1 | 268 mg/kg
CC(=O)OO | 39.9 mg/kg
CCOP(=S)(OCC)OC(Cl)C(Cl)(Cl)Cl (configuration not stated) | 1.8 mg/kg
CC1(C)C(=O)N(Br)C(=O)N1Br | 250 mg/kg
CC(=O)Oc1ccc(C(c2ccc(OC(C)=O)cc2)c2ccccn2)cc1 | 4300 mg/kg
CN | 80 mg/kg
CCCOP(=O)(OCCC)Oc1ccc(SC)cc1 | 61 mg/kg
CC(=O)c1cc2c(cc1C)C(C)(C)C(C)CC2(C)C (configuration not stated) | 920 mg/kg
C=CC(=O)OCCOC | 404 mg/kg
CN(C)CC/C=C1\c2ccccc2Sc2ccc(Cl)cc21 | 200 mg/kg

Structure (SMILES) | LD50
CC1OC(C)OC(C)OC(C)O1 (configuration not stated) | 227 mg/kg
CCNCC | 540 mg/kg
CSc1ccc2c(c1)N(CCC1CCCCN1C)c1ccccc1S2 (configuration not stated) | 995 mg/kg
CCN(CC)c1c([N+](=O)[O-])cc(C(F)(F)F)c(N)c1[N+](=O)[O-] | 3000 mg/kg
CC[Si](Cl)(Cl)Cl | 800 mg/kg
C/C=C/C=O | 165 mg/kg
N#CCO | 8 mg/kg
CC1(C)CC(=O)CC(C)(C#N)C1 (configuration not stated) | 61.6 mg/kg
CCOC(=O)CC(=O)C(F)(F)F | 765 mg/kg
O=C(CS)OC(CO)CO | 172 mg/kg
NC(N)=S | 20 mg/kg
Cc1ccccc1OP(=O)(Oc1ccccc1C)Oc1ccccc1C | 1160 mg/kg
CC(C)(c1ccc(O)cc1)c1ccc(O)cc1 | 3250 mg/kg
CCC(C)(CCC(C)C)C(=O)OOC(C)(C)C (configuration not stated) | 8080 mg/kg
O=C(O)c1cc2ccccc2cc1O | 809 mg/kg
CC(=O)C=C(C)C | 300 mg/kg
CCCCOCC(C)O (configuration not stated) | 2500 mg/kg
CCOP(=S)(OCC)Oc1cc(C)nc(N(CC)CC)n1 | 140 mg/kg
NCC1CCCC(CN)C1 (configuration not stated) | 880 mg/kg
ClSC(Cl)(Cl)Cl | 82.6 mg/kg
CCS(=O)CCSP(=O)(OC)OC (configuration not stated) | 48 mg/kg
CNc1ccccc1 | 716 mg/kg
Cc1ccc(C)cc1 | 3520 mg/kg
CCC(CC)Nc1c([N+](=O)[O-])cc(C)c(C)c1[N+](=O)[O-] | 1050 mg/kg
O=P(OCC(Br)CBr)(OCC(Br)CBr)OCC(Br)CBr (configuration not stated) | 810 mg/kg

Structure (SMILES) | LD50
OCCCCCCO | 3000 mg/kg
CC(=O)CC(C)C | 2080 mg/kg
CNC(=O)Oc1cc(C)cc(C)c1 | 245 mg/kg
CCCCNC(=O)OCC#CI | 1100 mg/kg
C#CCN1CC(=O)N(COC(=O)[C@@H]2[C@@H](C=C(C)C)C2(C)C)C1=O | 900 mg/kg
CCCCOC(=O)CO | 4240 mg/kg
C=CCO | 64 mg/kg
O=C(O)C1C2CCC(O2)C1C(=O)O (configuration not stated) | 38 mg/kg
Cc1ccncc1 | 440 mg/kg
C[n+]1ccc(-c2cc[n+](C)cc2)cc1 | 97.5 mg/kg and 106 mg/kg
CC1=NNC(=O)N(/N=C/c2cccnc2)C1 | 5690 mg/kg
CC(C)N(C(=O)CO)c1ccc(F)cc1 | 474 mg/kg
CCCCC#N | 332 mg/kg
CCCCCCCCCC[N+](C)(C)CCCCCCCCCC | 84 mg/kg
CCCCN(CC)C(=O)SCCC | 921 mg/kg
CSc1nnc(C(C)(C)C)c(=O)n1N | 322 mg/kg
O=C(CCl)c1ccccc1 | 50 mg/kg
O=C(OC1CCCCC1)c1ccccc1O | 3030 mg/kg
CC(Cl)(Cl)C(=O)O | 6940 mg/kg
CCC(C)n1c(=O)[nH]c(C)c(Br)c1=O (configuration not stated) | 641 mg/kg
CCOP(=S)(OCC)SCSCC | 1 mg/kg
CN(Cc1cnc2nc(N)nc(N)c2n1)c1ccc(C(=O)N[C@@H](CCC(=O)O)C(=O)O)cc1 | 135 mg/kg
COCCOCCOCCO | 11300 mg/kg
CC(=O)CC(c1ccccc1)c1c(O)c2ccccc2oc1=O (configuration not stated) | 1.6 mg/kg
CCC(C)c1cc([N+](=O)[O-])cc([N+](=O)[O-])c1OC(=O)C=C(C)C (configuration not stated) | 58 mg/kg

Structure (SMILES) | LD50
CCCCOCCOCCOC(C)=O | 6500 mg/kg
COP(=S)(OC)Oc1cc(Cl)c(Br)cc1Cl | 1600 mg/kg
COC[C@H](C)N(C(=O)CCl)c1c(C)csc1C | 371 mg/kg
O=S(=O)(O)OCCOc1ccc(Cl)cc1Cl | 480 mg/kg
CCOP(=O)(SC(C)CC)SC(C)CC (configuration not stated) | 37.1 mg/kg
CCCCCCCCCCCCCCCCCCOCCO | 1900 mg/kg
CCOCCOCCO | 5570 mg/kg
O=C(O)C1CCC(C(=O)O)CC1 (configuration not stated) | 1900 mg/kg
COC(=O)c1ccccc1C(=O)OC | 2860 mg/kg
CC1(C)[C@H]2[C@H](O)OC(=O)[C@H]21 | 200 mg/kg
CCOCCO | 1520 mg/kg
COP(=S)(OC)Oc1ccc([N+](=O)[O-])c(C)c1 | 250 mg/kg
CCCCN(CCCC)SN(C)C(=O)Oc1cccc2c1OC(C)(C)C2 | 51 mg/kg
CCCCCCCCCCCCOS(=O)(=O)O | 977 mg/kg
Sc1ccccc1 | 46 mg/kg
C=CCCC | 4600 mg/kg
CCNP(=S)(OC)O/C(C)=C/C(=O)OC(C)C (configuration not stated) | 59.5 mg/kg
OCCc1ccccn1 | 3840 mg/kg
CNC(=S)NN | 14 mg/kg
CC[N+](=O)[O-] | 1080 mg/kg
C=C(C)C(=O)OCCCC | 16000 mg/kg
CCCNCCC | 300 mg/kg
Cc1ccc([N+](=O)[O-])cc1 | 2050 mg/kg
O=C1OC(O)C(C(Cl)Cl)=C1Cl (configuration not stated) | 128 mg/kg
COCCCN | 598 mg/kg

Structure (SMILES) | LD50
Cl/C=C\CCl | 81.5 mg/kg
OC[C@@H](O)[C@@H](O)CO | 13100 mg/kg
CCOP(c1ccccc1)c1ccccc1 | 316 mg/kg
CCCC(=O)O | 1630 mg/kg
C=CC[N+](C)(C)CC=C | 2520 mg/kg
OC1CCCCC1 | 1400 mg/kg
Cc1c(Cl)cccc1[N+](=O)[O-] | 2320 mg/kg
CCCCCCCCCCCCNC(=N)N | 566 mg/kg
O=Cc1ccc(-c2ccccc2)cc1 | 1000 mg/kg
C=CC(=O)OCCO | 548 mg/kg
Clc1cc2c(c(Cl)c1Cl)Oc1cc(Cl)c(Cl)c(Cl)c1O2 | 0.8 mg/kg
CCCCCCCCOC(=O)c1cc(O)c(O)c(O)c1 | 1960 mg/kg
CCOP(=S)(OCC)Oc1ccc(S(C)=O)cc1 (configuration not stated) | 1.8 mg/kg
COC(=O)/C=C\C(=O)OC | 1410 mg/kg
Clc1ccc(C(c2ccc(Cl)cc2)C(Cl)(Cl)Cl)cc1 | 87 mg/kg
C=CC(C#N)OC(C)=O (configuration not stated) | 31.6 mg/kg
OCc1ccco1 | 177 mg/kg
Clc1cccc(Cl)c1Cl | 756 mg/kg
OC[C@@H](O)[C@H](O)[C@@H](O)CO | 14100 mg/kg
CCCC1COC(Cn2cncn2)(c2ccc(Cl)cc2Cl)O1 (configuration not stated) | 1500 mg/kg
CC(C)N(C(=O)SCC(Cl)=C(Cl)Cl)C(C)C | 200 mg/kg
CC(C)c1ccc(-c2ccccc2)cc1 | 4570 mg/kg
ClCCCBr | 930 mg/kg
CCCNC(=O)NS(=O)(=O)c1ccc(Cl)cc1 | 2150 mg/kg
Clc1ccc(C2(Cn3cncn3)CC(Br)CO2)c(Cl)c1 (configuration not stated) | 328 mg/kg

Structure (SMILES) | LD50
Cc1ccc(C)c(C)c1 | 3280 mg/kg
C=CC(=O)OCCCC | 900 mg/kg
CCC(C)Nc1c([N+](=O)[O-])cc(C(C)(C)C)cc1[N+](=O)[O-] (configuration not stated) | 1050 mg/kg
CC(COC(=O)c1ccccc1)OC(=O)c1ccccc1 (configuration not stated) | 2660 mg/kg
COc1nn(CSP(=S)(OC)OC)c(=O)s1 | 20 mg/kg
ClC(Cl)=C(Cl)C(Cl)=C(Cl)Cl | 82 mg/kg
Nc1ccccc1[N+](=O)[O-] | 1600 mg/kg
CCN(CC)CCNC(=O)c1ccc(N)cc1 | 1510 mg/kg
COc1ccc2c3c1O[C@H]1[C@@H](O)C=C[C@H]4[C@@H](C2)N(C)CC[C@@]341 | 427 mg/kg
O=[N+]([O-])c1cccc(Cl)c1 | 300 mg/kg
CC(C)[C@H](C(=O)O[C@H](C#N)c1cccc(Oc2ccccc2)c1)c1ccc(Cl)cc1 | 88 mg/kg
CCCC1CO1 (configuration not stated) | 1330 mg/kg
CCCC1CC(C)(OC(C)=O)CCO1 (configuration not stated) | 4300 mg/kg
C=C(C)[C@@H]1CC=C(C)C(=O)C1 | 4900 mg/kg
CCCS | 1730 mg/kg
CCCCCCCCCCCCCCCC[N+](C)(C)C | 450 mg/kg
CCOc1ccc2c(c1)C(C)=CC(C)(C)N2 | 800 mg/kg
Oc1cc(Cl)c(Cl)cc1Cl | 820 mg/kg
CCO[Si](CCC#N)(OCC)OCC | 5600 mg/kg
NC1CCCCC1 | 11 mg/kg
O=[N+]([O-])c1ccc(Cl)c(Cl)c1 | 625 mg/kg
C=C(C)C(=O)OCCN=C=O | 670 mg/kg
